The assay has as its target C. elegans Slo-1a (Caenorhabditis elegans, UniProt Q95V25). Nature of the assay: In vitro assay 1: C. elegans Slo-1a, action at a recombinant C. elegans CHO cell line (membrane potential measurement). The note with it: CHO cells expressing C. elegans Slo-1a; voltage sensitive dye, FLIPR Tetra; negative decadic logarithm of EC50.
C. elegans Slo-1a, sequence (Q95V25 whole entry): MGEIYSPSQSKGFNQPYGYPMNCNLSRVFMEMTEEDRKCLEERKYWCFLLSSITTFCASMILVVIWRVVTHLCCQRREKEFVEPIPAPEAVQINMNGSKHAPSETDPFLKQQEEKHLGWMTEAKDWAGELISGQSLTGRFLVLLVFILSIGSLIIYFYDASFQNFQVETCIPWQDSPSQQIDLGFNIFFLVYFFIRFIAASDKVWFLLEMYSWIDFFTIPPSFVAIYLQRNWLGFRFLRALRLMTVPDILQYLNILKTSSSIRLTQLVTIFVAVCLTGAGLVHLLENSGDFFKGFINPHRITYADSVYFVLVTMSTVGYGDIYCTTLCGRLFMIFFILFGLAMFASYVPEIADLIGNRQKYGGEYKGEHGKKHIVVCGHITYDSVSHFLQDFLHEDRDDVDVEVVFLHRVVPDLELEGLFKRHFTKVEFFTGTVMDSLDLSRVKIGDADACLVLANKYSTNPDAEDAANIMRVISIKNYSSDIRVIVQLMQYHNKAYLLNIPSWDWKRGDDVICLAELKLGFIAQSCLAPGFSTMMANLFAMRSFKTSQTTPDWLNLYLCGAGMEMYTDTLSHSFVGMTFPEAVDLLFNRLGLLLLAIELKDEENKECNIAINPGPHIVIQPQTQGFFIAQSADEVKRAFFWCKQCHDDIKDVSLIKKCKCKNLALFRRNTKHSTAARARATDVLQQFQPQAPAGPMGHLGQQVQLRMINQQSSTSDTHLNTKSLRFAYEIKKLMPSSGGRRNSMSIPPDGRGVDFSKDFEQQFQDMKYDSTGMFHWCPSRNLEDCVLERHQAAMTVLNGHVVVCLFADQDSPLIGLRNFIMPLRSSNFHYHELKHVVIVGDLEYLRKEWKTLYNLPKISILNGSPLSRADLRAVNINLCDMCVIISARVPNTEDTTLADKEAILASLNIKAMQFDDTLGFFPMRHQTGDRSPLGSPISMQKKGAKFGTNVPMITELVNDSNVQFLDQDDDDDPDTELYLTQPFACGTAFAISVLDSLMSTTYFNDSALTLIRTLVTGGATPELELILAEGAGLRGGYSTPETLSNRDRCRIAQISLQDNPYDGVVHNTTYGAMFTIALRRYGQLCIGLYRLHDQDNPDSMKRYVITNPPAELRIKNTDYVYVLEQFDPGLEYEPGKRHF
With `Cc1nn2c(C(C)C)c(C(=O)N[C@H]3CCc4ccccc43)cnc2c1-c1cc(Cl)cc(Cl)c1` [Example 8], the pE50 is given as 7.5. `Cc1nn2c(C)c(C(=O)N[C@H]3CCCc4ccccc43)cnc2c1-c1ccccc1Cl` [Example 9]: the pE50 is listed as 7.8.

In the case of `Cc1nn2c(C)c(C(=O)N[C@H]3CCc4ccccc43)cnc2c1-c1ccccc1Cl` [Example 14], the pE50 stood at 7.7. The result for `Cc1nn2c(C)c(C(=O)N[C@H]3CCCc4ccccc43)cnc2c1-c1cccc(C(F)(F)F)c1` [Example 15] reads 6.7; that for `Cc1nn2c(C)c(C(=O)N[C@H]3CCc4ccccc43)cnc2c1-c1cccc(C(F)(F)F)c1` [Example 16], 6.7. Next, `Cc1nn2c(C(C)C)c(C(=O)N[C@H]3CCCc4ccccc43)cnc2c1-c1ccccc1Cl` [Example 19]: 8.

In the case of `Cc1nn2c(C(C)C)c(C(=O)N[C@H]3CCc4ccccc43)cnc2c1-c1ccccc1Cl` [Example 20], the pE50 is recorded as 7.9. The result for `CC(C)c1c(C(=O)N[C@H]2CCCc3ccccc32)cnc2c(-c3ccccc3Cl)cnn12` [Example 21] reads 6.5. The result for `CC(C)c1c(C(=O)N[C@H]2CCc3ccccc32)cnc2c(-c3ccc(Cl)cc3)cnn12` [Example 23] reads 7.2. The result for `CC(C)c1c(C(=O)N[C@H]2CCc3ccccc32)cnc2c(-c3ccccc3Cl)cnn12` [Example 24] reads 7.2; that for `CC(C)c1c(C(=O)N[C@H]2CCCc3ccccc32)cnc2c(-c3ccc(Cl)cc3)cnn12` [Example 25], 6.6; that for `Cc1nn2c(C)c(C(=O)N[C@H]3CCc4ccccc43)cnc2c1-c1ccc(Cl)cc1` [Example 27], 7.2. On to `Cc1nn2c(C(C)C)c(C(=O)N[C@H]3CCCc4ccccc43)cnc2c1-c1ccc(Cl)cc1` [Example 29], for which the pE50 amounted to 6.7.

As for `Cc1c(C(=O)N[C@H]2CCc3ccccc32)cnc2c(-c3ccc(Cl)cc3)cnn12` [Example 31], the pE50 worked out at 6.7. Next, `Cc1nn2c(C(C)C)c(C(=O)N[C@H]3CCc4ccccc43)cnc2c1-c1ccc(Cl)cc1` [Example 32]: 7.5; `CC(C)c1c(C(=O)N[C@H]2CCc3ccccc32)cnc2c(-c3cccc(C(F)(F)F)c3)cnn12` [Example 37]: 6.7. The result for `CC(C)c1c(C(=O)N[C@H]2CCc3ccccc32)cnc2c(-c3cccc(Cl)c3)cnn12` [Example 40] reads 6.5; that for `Cc1c(C(=O)N[C@H]2CCCc3ccccc32)cnc2c(-c3ccc(Cl)cc3)cnn12` [Example 41], 4.8; that for `Cc1c(C(=O)N[C@H]2CCCc3ccccc32)cnc2c(-c3ccccc3Cl)cnn12` [Example 42], 6.2. The result for `Cc1c(C(=O)N[C@H]2CCc3ccccc32)cnc2c(-c3ccccc3Cl)cnn12` [Example 43] reads 6.8. `COc1c(F)ccc(-c2c(C(F)F)nn3c(C4CC4)c(C(=O)N[C@H]4CCOc5ccccc54)cnc23)c1F` [Example 269]: the pE50 stood at 9.

As to `O=C(N[C@H]1CCOc2ccccc21)c1cnc2c(-c3cccc(F)c3F)c(C(F)F)nn2c1C1CC1` [Example 270], the pE50 turned out to be 8.4. The result for `O=C(N[C@H]1CCOc2ccccc21)c1cnc2c(-c3c(Cl)cccc3Cl)c(C(F)F)nn2c1C1CC1` [Example 271] reads 8.5.

As to `O=C(N[C@H]1CCOc2ccccc21)c1cnc2c(-c3cc(Cl)c(F)c(Cl)c3)c(C(F)F)nn2c1C1CC1` [Example 272], the pE50 is recorded as 7.6.

Take `O=C(N[C@H]1CCOc2ccccc21)c1cnc2c(-c3cccc(Cl)c3)c(C(F)F)nn2c1C1CC1` [Example 273]: the pE50 stood at 8.3. Turning to `O=C(N[C@H]1CCOc2ccccc21)c1cnc2c(-c3ccc(F)c(F)c3)c(C(F)F)nn2c1C1CC1` [Example 274], the pE50 is 7.7. The result for `CC(C)c1c(C(=O)N[C@H]2CCOc3ccccc32)cnc2c(-c3cccc(Cl)c3)c(Cl)nn12` [Example 275] reads 7.9. Consider `CC(C)c1c(C(=O)N[C@H]2CCOc3ccccc32)cnc2c(-c3cccc(Cl)c3)c(C(F)F)nn12` [Example 276], for which the pE50 is 8. Turning to `CC(C)c1c(C(=O)N[C@H]2CCOc3ccccc32)cnc2c(-c3c(F)ccc(Cl)c3F)c(C(F)F)nn12` [Example 277], the pE50 is 8.8. For `CC(C)c1c(C(=O)N[C@H]2CCOc3ccccc32)cnc2c(-c3ccc(F)c(F)c3)c(C(F)F)nn12` [Example 278], the pE50 was 7.5. Next, `CC(C)c1c(C(=O)N[C@H]2CCOc3ccccc32)cnc2c(-c3cccc(F)c3F)c(C(F)F)nn12` [Example 279]: 8.2. With `O=C(N[C@H]1CCOc2ccccc21)c1cnc2c(-c3c(F)ccc(Cl)c3F)c(C(F)F)nn2c1C1CC1` [Example 280], the pE50 is reported as 8.9. The result for `CC(C)c1c(C(=O)N[C@H]2CCOc3ccccc32)cnc2c(-c3cc(Cl)c(F)c(Cl)c3)c(C(F)F)nn12` [Example 282] reads 8.3.

On to `Cc1nn2c(C(C)C)c(C(=O)N[C@H]3CCOc4ccccc43)cnc2c1-c1ccc(F)c(N(C)C)c1F` [Example 283], for which the pE50 is 9.3.

Consider `COc1c(F)ccc(-c2c(C)nn3c(C4CC4)c(C(=O)N[C@H]4CCOc5ccccc54)cnc23)c1F` [Example 284], for which the pE50 came to 9.1. Consider `CC(C)c1c(C(=O)N[C@H]2CCc3ccccc32)cnc2c(-c3cccc(F)c3F)c(Cl)nn12` [Example 285], for which the pE50 was found to be 8. The result for `CC(C)c1c(C(=O)N[C@H]2CCCc3ccccc32)cnc2c(-c3cccc(F)c3F)c(Cl)nn12` [Example 286] reads 7.9. The result for `CCc1c(C(=O)N[C@H]2CCOc3ccccc32)cnc2c(-c3cccc(F)c3F)c(C)nn12` [Example 477] reads 8.2; that for `CCc1c(C(=O)N[C@H]2CCOc3ccccc32)cnc2c(-c3c(F)cccc3Cl)c(C)nn12` [Example 479], 8.2. Next, `Cc1nn2c(C3CC3)c(C(=O)N[C@H]3CCOc4ccccc43)cnc2c1-c1cccc(Cl)c1F` [Example 480]: 8.9; `Cc1nn2c(C(C)C)c(C(=O)N[C@H]3CCOc4ccccc43)cnc2c1-c1cccc2[nH]ccc12` [Example 481]: 7.7; `COc1c(F)cc(F)c(-c2c(C)nn3c(C4CC4)c(C(=O)N[C@H]4CCOc5ccccc54)cnc23)c1F` [Example 482]: 9.2. As to `Cc1nn2c(C(C)C)c(C(=O)N[C@H]3CCOc4ccccc43)cnc2c1-c1cccc2c1ccn2C` [Example 483], the pE50 was 7.8. `CCc1c(C(=O)N[C@H]2CCOc3ccccc32)cnc2c(-c3cccc(Cl)c3Cl)c(C)nn12` [Example 484]: the pE50 was 8.6. The result for `CCc1c(C(=O)N[C@H]2CCOc3ccccc32)cnc2c(-c3ccc(Cl)cc3Cl)c(C)nn12` [Example 485] reads 8.2.

Consider `CCc1c(C(=O)N[C@H]2CCOc3ccccc32)cnc2c(-c3cc(Cl)ccc3Cl)c(C)nn12` [Example 486], for which the pE50 is 8.4. Next, `CCc1c(C(=O)N[C@H]2CCOc3ccccc32)cnc2c(-c3ccc(F)c(F)c3)c(C)nn12` [Example 487]: 7.7. Next, `CCc1c(C(=O)N[C@H]2CCOc3ccccc32)cnc2c(-c3cccc(Cl)c3)c(C)nn12` [Example 488]: 8.2; `CCc1c(C(=O)N[C@H]2CCOc3ccccc32)cnc2c(-c3ccc(F)c(F)c3F)c(C)nn12` [Example 490]: 8.3; `CCc1c(C(=O)N[C@H]2CCOc3ccccc32)cnc2c(-c3c(Cl)cccc3Cl)c(C)nn12` [Example 491]: 8.3. The result for `O=C(N[C@H]1CCOc2ccccc21)c1cnc2c(-c3cc(Cl)ccc3Cl)c(C(F)F)nn2c1C1CC1` [Example 492] reads 8.9; that for `O=C(N[C@H]1CCOc2ccccc21)c1cnc2c(-c3c(F)cccc3F)c(C(F)F)nn2c1C1CC1` [Example 493], 8.7.

In the case of `CC(C)c1c(C(=O)N[C@H]2CCOc3ccccc32)cnc2c(-c3cc(Cl)ccc3Cl)c(C(F)F)nn12` [Example 494], the pE50 amounted to 8.5.

Turning to `CC(C)c1c(C(=O)N[C@H]2CCOc3ccccc32)cnc2c(-c3c(F)cccc3F)c(C(F)F)nn12` [Example 495], the pE50 is 8.3. `CCc1c(C(=O)N[C@H]2CCOc3ccccc32)cnc2c(-c3ccc(F)c(OC)c3F)c(C)nn12` [Example 496]: the pE50 amounted to 8.9. Next, `CCc1c(C(=O)N[C@H]2CCOc3ccccc32)cnc2c(-c3cc(Cl)c(F)c(Cl)c3)c(C)nn12` [Example 497]: 8. With `O=C(N[C@H]1CCOc2ccccc21)c1cnc2c(-c3ccc(F)c(F)c3F)c(C(F)F)nn2c1C1CC1` [Example 498], the pE50 stood at 8.3. Next, `O=C(N[C@H]1CCOc2ccccc21)c1cnc2c(-c3c(F)cccc3Cl)c(C(F)F)nn2c1C1CC1` [Example 499]: 8.5; `CC(C)c1c(C(=O)N[C@H]2CCOc3ccccc32)cnc2c(-c3ccc(F)c(F)c3)c(Cl)nn12` [Example 500]: 7.7. The result for `Cc1nn2c(C3CC3)c(C(=O)N[C@H]3CCOc4ccccc43)cnc2c1-c1cccc(O)c1` [Example 501] reads 6.3; that for `COc1c(F)ccc(-c2c(C(F)F)nn3c(C(C)C)c(C(=O)N[C@H]4CCOc5ccccc54)cnc23)c1F` [Example 502], 8.6. Next, `CC(C)c1c(C(=O)N[C@H]2CCOc3ccccc32)cnc2c(-c3c(Cl)cccc3Cl)c(C(F)F)nn12` [Example 503]: 7.9; `Cc1nn2c(C3CC3)c(C(=O)N[C@H]3CCOc4ccccc43)cnc2c1-c1cc(C(F)(F)F)ccc1F` [Example 504]: 8.9. As to `CC(C)c1c(C(=O)N[C@H]2CCOc3ccccc32)cnc2c(-c3cccc(Cl)c3Cl)c(C(F)F)nn12` [Example 505], the pE50 turned out to be 8.5. In the case of `CC(C)c1c(C(=O)N[C@H]2CCOc3ccccc32)cnc2c(-c3c(F)cccc3Cl)c(C(F)F)nn12` [Example 506], the pE50 was determined as 8.1.

The record behind these values is patent publication US11001590B2, “Pyrazolopyrimidine derivatives” (BAYER ANIMAL HEALTH GMBH, priority 2016, dated 2021).
